According to ChEMBL document CHEMBL5346872 (Eur J Med Chem, 2023):
The source made the active and inactive calls. The rule behind the calls is not given here.

Target: T1, beta-catenin-B-cell lymphoma 9 protein complex (Homo sapiens, UniProt P35222)
T1 sequence (P35222 whole entry): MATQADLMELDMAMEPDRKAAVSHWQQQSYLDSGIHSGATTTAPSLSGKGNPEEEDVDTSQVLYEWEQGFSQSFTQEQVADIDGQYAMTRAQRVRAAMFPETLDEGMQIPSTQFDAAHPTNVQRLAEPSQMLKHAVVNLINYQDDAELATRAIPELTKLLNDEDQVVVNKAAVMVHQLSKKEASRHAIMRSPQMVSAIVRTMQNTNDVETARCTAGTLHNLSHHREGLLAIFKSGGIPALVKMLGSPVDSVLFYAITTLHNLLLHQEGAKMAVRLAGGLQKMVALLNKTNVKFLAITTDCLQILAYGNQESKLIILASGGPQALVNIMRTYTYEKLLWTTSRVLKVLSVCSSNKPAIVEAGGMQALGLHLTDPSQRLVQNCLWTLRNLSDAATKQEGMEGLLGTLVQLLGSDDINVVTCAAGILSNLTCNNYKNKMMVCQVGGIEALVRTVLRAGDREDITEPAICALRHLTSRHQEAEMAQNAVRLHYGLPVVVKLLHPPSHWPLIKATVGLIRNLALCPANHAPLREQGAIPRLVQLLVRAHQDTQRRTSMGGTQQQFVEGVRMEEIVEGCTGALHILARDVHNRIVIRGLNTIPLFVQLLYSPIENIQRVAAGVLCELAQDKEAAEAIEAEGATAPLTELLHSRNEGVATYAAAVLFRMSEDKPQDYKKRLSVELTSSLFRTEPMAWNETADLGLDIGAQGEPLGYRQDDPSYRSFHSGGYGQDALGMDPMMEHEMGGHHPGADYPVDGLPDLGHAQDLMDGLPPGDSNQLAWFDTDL
T1 sequence (O00512 whole entry): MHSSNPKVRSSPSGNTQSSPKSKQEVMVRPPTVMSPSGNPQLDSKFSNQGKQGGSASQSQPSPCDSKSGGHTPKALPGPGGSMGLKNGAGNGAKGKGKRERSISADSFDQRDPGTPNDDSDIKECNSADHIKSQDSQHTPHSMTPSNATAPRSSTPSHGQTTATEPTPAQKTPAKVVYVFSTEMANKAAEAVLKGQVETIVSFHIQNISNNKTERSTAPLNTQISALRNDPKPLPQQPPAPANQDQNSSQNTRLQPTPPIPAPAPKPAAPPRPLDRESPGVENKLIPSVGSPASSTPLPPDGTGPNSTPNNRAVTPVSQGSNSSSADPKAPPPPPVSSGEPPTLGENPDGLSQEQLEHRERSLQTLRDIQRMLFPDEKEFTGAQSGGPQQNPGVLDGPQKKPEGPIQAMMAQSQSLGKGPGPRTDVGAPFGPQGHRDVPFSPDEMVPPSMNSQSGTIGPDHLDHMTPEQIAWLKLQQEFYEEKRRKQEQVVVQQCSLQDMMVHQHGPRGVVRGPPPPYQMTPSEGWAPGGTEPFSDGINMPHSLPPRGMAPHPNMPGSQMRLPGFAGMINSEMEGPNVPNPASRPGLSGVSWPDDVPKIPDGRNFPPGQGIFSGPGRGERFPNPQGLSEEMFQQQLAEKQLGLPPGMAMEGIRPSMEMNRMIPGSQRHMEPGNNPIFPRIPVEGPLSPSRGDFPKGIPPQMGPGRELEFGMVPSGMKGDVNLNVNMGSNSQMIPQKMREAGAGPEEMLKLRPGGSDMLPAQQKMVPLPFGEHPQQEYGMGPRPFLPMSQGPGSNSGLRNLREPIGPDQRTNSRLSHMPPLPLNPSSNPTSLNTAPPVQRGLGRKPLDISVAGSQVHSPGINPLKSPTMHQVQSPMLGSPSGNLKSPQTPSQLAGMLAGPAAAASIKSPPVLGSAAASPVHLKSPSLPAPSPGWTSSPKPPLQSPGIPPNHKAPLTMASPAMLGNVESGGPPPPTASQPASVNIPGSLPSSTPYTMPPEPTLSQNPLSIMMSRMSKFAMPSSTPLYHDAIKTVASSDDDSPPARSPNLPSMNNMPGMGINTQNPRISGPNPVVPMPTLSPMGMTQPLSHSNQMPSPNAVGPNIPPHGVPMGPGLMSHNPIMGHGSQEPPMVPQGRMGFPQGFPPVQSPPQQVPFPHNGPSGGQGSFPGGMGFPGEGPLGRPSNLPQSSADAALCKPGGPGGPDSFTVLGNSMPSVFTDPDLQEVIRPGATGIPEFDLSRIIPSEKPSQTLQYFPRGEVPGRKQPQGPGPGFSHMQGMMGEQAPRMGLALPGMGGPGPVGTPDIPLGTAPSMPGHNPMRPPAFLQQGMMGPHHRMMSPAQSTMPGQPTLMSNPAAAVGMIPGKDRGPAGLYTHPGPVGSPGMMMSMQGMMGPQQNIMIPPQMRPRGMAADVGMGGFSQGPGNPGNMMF
Experiment: Inhibition of beta-catenin (unknown origin) to BCL9-FAM (unknown origin) protein-protein interaction preincubated for 2 hrs followed by BCL9 addition and measured after 2 hrs by fluorescence polarization assay
Assay type: protein-complex assay
Conditions: not given

Row | SMILES | IC50 [µM]
1 | CCN(CC)CCOc1cc(-c2oc3cc(O)cc(O)c3c(=O)c2O)ccc1O | 27.9

Tested on: not listed separately
Experiment: Induction of immune microenvironment in BALB/c mouse spleen assessed as increase in granzyme B at 5 to 10 uM after 24 hrs by flow cytometry analysis (reference value: 16.7 %)
Assay type: functional
Conditions: dose 5-10 µM

Row | SMILES | Activity [%]
2 | CN1CCN(CCCOc2cc(-c3oc4cc(O)cc(O)c4c(=O)c3O)ccc2O)CC1 | 31.1

Tested on: not listed separately
Experiment: Inhibition of Wnt/beta-catenin signaling in human HCT-116 cells assessed as reduction in Axin2 expression incubated for 24 hrs by qPCR analysis
Conditions: HCT-116, 24 h

Row | SMILES | IC50 [µM]
3 | CN1CCN(CCCOc2cc(-c3oc4cc(O)cc(O)c4c(=O)c3O)ccc2O)CC1 | 9.71
4 | O=c1c(O)c(-c2ccc(O)c(O)c2)oc2cc(O)cc(O)c12 [QUERCETIN] | 3.57

Tested on: CT26
Experiment: Antitumor activity against mouse CT26 cells implanted in BALB/c mouse assessed as induction of immune microenvironment at 30 mg/kg, ip administered once daily and measured on day 14 by qPCR analysis
Assay type: functional, organism-based
Conditions: time 14.0 day

Row | SMILES | Activity
5 | CN1CCN(CCCOc2cc(-c3oc4cc(O)cc(O)c4c(=O)c3O)ccc2O)CC1 | Active

Tested on: CT26
Experiment: Antitumor activity against mouse CT26 cells implanted in BALB/c mouse assessed as increase in granzyme B expression at 30 mg/kg, ip administered once daily and measured on day 14 by qPCR analysis
Assay type: functional, organism-based
Conditions: time 14.0 day

Row | SMILES | Activity
6 | CN1CCN(CCCOc2cc(-c3oc4cc(O)cc(O)c4c(=O)c3O)ccc2O)CC1 | Active

Tested on: HCT-116
Experiment: Antiproliferative activity against human HCT-116 cells assessed as reduction in cell viability incubated for 48 hrs by CCK8 assay
Conditions: HCT-116, 48 h

Row | SMILES | IC50 [µM]
7 | CN1CCN(CCCOc2cc(-c3oc4cc(O)cc(O)c4c(=O)c3O)ccc2O)CC1 | 4.4
8 | O=c1c(O)c(-c2ccc(O)c(O)c2)oc2cc(O)cc(O)c12 [QUERCETIN] | 10.4

Tested on: CT26
Experiment: Antitumor activity against mouse CT26 cells implanted in BALB/c mouse assessed as downregulation of interleukin-10 gene expression at 30 mg/kg, ip administered once daily and measured on day 14 by qPCR analysis
Assay type: functional, organism-based
Conditions: time 14.0 day

Row | SMILES | Activity
9 | CN1CCN(CCCOc2cc(-c3oc4cc(O)cc(O)c4c(=O)c3O)ccc2O)CC1 | Active

Tested on: not listed separately
Experiment: Inhibition of Wnt/beta-catenin signaling in BCL9 knockdown mouse CT26 cells assessed as reduction in Axin2 expression incubated for 24 hrs by qPCR analysis
Conditions: CT26, 24 h

Row | SMILES | IC50 [µM]
10 | CN1CCN(CCCOc2cc(-c3oc4cc(O)cc(O)c4c(=O)c3O)ccc2O)CC1 | 27.9
11 | O=c1c(O)c(-c2ccc(O)c(O)c2)oc2cc(O)cc(O)c12 [QUERCETIN] | 23.5

Tested on: not listed separately
Experiment: Drug concentration in human HCT-116 cells assessed as retention ratio at 2 uM incubated for 24 hrs by HPLC-MS analysis
Assay type: ADME, cell-based
Conditions: hct-116, 24 h

Row | SMILES | Drug uptake [%]
12 | CN1CCN(CCCOc2cc(-c3oc4cc(O)cc(O)c4c(=O)c3O)ccc2O)CC1 | 31.31

Tested on: CT26
Experiment: Induction of apoptosis in mouse CT26 cells assessed as late apoptosis at 5 to 40 uM incubated for 24 hrs by annexin V and PI staining based flow cytometry analysis
Assay type: functional, cell-based
Conditions: dose 5-40 µM

Row | SMILES | Activity
13 | CN1CCN(CCCOc2cc(-c3oc4cc(O)cc(O)c4c(=O)c3O)ccc2O)CC1 | Active

Tested on: CT26
Experiment: Induction of apoptosis in mouse CT26 cells assessed as early apoptosis at 5 to 40 uM incubated for 24 hrs by annexin V and PI staining based flow cytometry analysis
Assay type: functional, cell-based
Conditions: dose 5-40 µM

Row | SMILES | Activity
14 | CN1CCN(CCCOc2cc(-c3oc4cc(O)cc(O)c4c(=O)c3O)ccc2O)CC1 | Active

Tested on: CT26
Experiment: Inhibition of Wnt/beta-catenin signaling in mouse CT26 cells assessed as reduction in Axin2 expression incubated for 24 hrs by Western blot analysis
Assay type: cell-based
Conditions: dose 5-20 µM

Row | SMILES | inhibition
15 | CN1CCN(CCCOc2cc(-c3oc4cc(O)cc(O)c4c(=O)c3O)ccc2O)CC1 | Dose-Dependent Effect
16 | O=c1c(O)c(-c2ccc(O)c(O)c2)oc2cc(O)cc(O)c12 [QUERCETIN] | Dose-Dependent Effect

Tested on: RKO
Experiment: Antiproliferative activity against human RKO cells assessed as reduction in cell viability incubated for 48 hrs by CCK8 assay
Conditions: not given

Row | SMILES | IC50 [µM]
17 | CN1CCN(CCCOc2cc(-c3oc4cc(O)cc(O)c4c(=O)c3O)ccc2O)CC1 | 26.7

Tested on: CT26
Experiment: Antitumor activity against mouse CT26 cells implanted in BALB/c mouse assessed as tumor growth inhibition at 30 mg/kg, ip administered once daily and measured on day 14
Assay type: functional
Conditions: CT26, 336 h, time 14 day, read-out: TGI

Row | SMILES | inhibition in vivo at 30 mg/kg [%]
18 | CN1CCN(CCCOc2cc(-c3oc4cc(O)cc(O)c4c(=O)c3O)ccc2O)CC1 | 81.4
19 | O=C1[C@H](Cc2ccc(O)cc2)N2C(=O)CCN(C(=O)NCc3ccccc3)[C@H]2CN1Cc1cccc2ccccc12 | 40.8
20 | O=c1c(O)c(-c2ccc(O)c(O)c2)oc2cc(O)cc(O)c12 [QUERCETIN] | 69.4

Tested on: HEK293
Experiment: Antiproliferative activity against HEK293 cells assessed as reduction in cell viability incubated for 48 hrs by CCK8 assay
Conditions: Homo sapiens, HEK293, 48 h

Row | SMILES | IC50 [µM]
21 | CN1CCN(CCCOc2cc(-c3oc4cc(O)cc(O)c4c(=O)c3O)ccc2O)CC1 | 17.7

Tested on: CT26
Experiment: Antiproliferative activity against mouse CT26 cells assessed as reduction in cell viability incubated for 48 hrs by CCK-8 assay
Conditions: CT26, 48 h

Row | SMILES | IC50 [µM]
22 | CN1CCN(CCCOc2cc(-c3oc4cc(O)cc(O)c4c(=O)c3O)ccc2O)CC1 | 3.21
23 | O=c1c(O)c(-c2ccc(O)c(OCCCN3CCOCC3)c2)oc2cc(O)cc(O)c12 | 7.85
24 | CCN(CC)CCOc1cc(-c2oc3cc(O)cc(O)c3c(=O)c2O)ccc1O | 11.8
25 | O=c1c(O)c(-c2ccc(O)c(O)c2)oc2cc(O)cc(O)c12 [QUERCETIN] | 14.4

Tested on: not listed separately
Experiment: Inhibition of Wnt/beta-catenin signaling in human HCT116 cells incubated for 24 hrs by TCF/LEF reporter assay
Conditions: HCT-116, 24 h

Row | SMILES | IC50 [µM]
26 | CN1CCN(CCCOc2cc(-c3oc4cc(O)cc(O)c4c(=O)c3O)ccc2O)CC1 | 15.2
27 | O=c1c(O)c(-c2ccc(O)c(O)c2)oc2cc(O)cc(O)c12 [QUERCETIN] | 4.71

Tested on: not listed separately
Experiment: Inhibition of Wnt/beta-catenin signaling in mouse CT26 cells assessed as reduction in Axin2 expression incubated for 24 hrs by qPCR analysis
Conditions: CT26, 24 h

Row | SMILES | IC50 [µM]
28 | CN1CCN(CCCOc2cc(-c3oc4cc(O)cc(O)c4c(=O)c3O)ccc2O)CC1 | 2.81
29 | O=c1c(O)c(-c2ccc(O)c(OCCCN3CCOCC3)c2)oc2cc(O)cc(O)c12 | 6.29
30 | CCN(CC)CCOc1cc(-c2oc3cc(O)cc(O)c3c(=O)c2O)ccc1O | 40.7
31 | O=c1c(O)c(-c2ccc(O)c(O)c2)oc2cc(O)cc(O)c12 [QUERCETIN] | 7.7

Tested on: not listed separately
Experiment: Drug concentration in human HCT-116 cells at 2 uM incubated for 24 hrs by HPLC-MS analysis
Assay type: ADME, cell-based
Conditions: hct-116, 24 h

Row | SMILES | Drug uptake [µM]
32 | CN1CCN(CCCOc2cc(-c3oc4cc(O)cc(O)c4c(=O)c3O)ccc2O)CC1 | 0.63

Tested on: not listed separately
Experiment: Toxicity in BALB/c mouse assessed as body weight loss at 30 mg/kg, ip administered once daily measured after 14 days
Assay type: organism-based
Conditions: in vivo, 336 h, time 14 day

Row | SMILES | Activity
33 | CN1CCN(CCCOc2cc(-c3oc4cc(O)cc(O)c4c(=O)c3O)ccc2O)CC1 | Non-Toxic
34 | O=C1[C@H](Cc2ccc(O)cc2)N2C(=O)CCN(C(=O)NCc3ccccc3)[C@H]2CN1Cc1cccc2ccccc12 | Non-Toxic
35 | O=c1c(O)c(-c2ccc(O)c(O)c2)oc2cc(O)cc(O)c12 [QUERCETIN] | Non-Toxic

Tested on: CT26
Conditions: Mus musculus, dose 30.0 mg/kg, route ip, time 14.0 day
Description: In vivo inhibition of Wnt/beta-catenin signaling in mouse CT26 cells implanted in BALB/c mouse assessed as reduction in Axin2 expression at 30 mg/kg, ip administered once daily and measured on day 14 by qPCR analysis

Row | SMILES | inhibition
36 | CN1CCN(CCCOc2cc(-c3oc4cc(O)cc(O)c4c(=O)c3O)ccc2O)CC1 | Active
